Experimental data taken from ChEMBL document CHEMBL2074159, “Role of organic cation transporters in the renal secretion of nucleosides” (Biochem Pharmacol, 2000).

B1: Solute carrier family 22 member 1 (Rattus norvegicus) (protein)
chain: MPTVDDVLEQVGEFGWFQKQAFLLLCLISASLAPIYVGIVFLGFTPGHYCQNPGVAELSQRCGWSQAEELNYTVPGLGPSDEASFLSQCMRYEVDWNQSTLDCVDPLSSLVANRSQLPLGPCEHGWVYDTPGSSIVTEFNLVCGDAWKVDLFQSCVNLGFFLGSLVVGYIADRFGRKLCLLVTTLVTSVSGVLTAVAPDYTSMLLFRLLQGMVSKGSWVSGYTLITEFVGSGYRRTTAILYQMAFTVGLVGLAGVAYAIPDWRWLQLAVSLPTFLFLLYYWFVPESPRWLLSQKRTTRAVRIMEQIAQKNGKVPPADLKMLCLEEDASEKRSPSFADLFRTPNLRKHTVILMYLWFSCAVLYQGLIMHVGATGANLYLDFFYSSLVEFPAAFIILVTIDRIGRIYPIAASNLVTGAACLLMIFIPHELHWLNVTLACLGRMGATIVLQMVCLVNAELYPTFIRNLGMMVCSALCDLGGIFTPFMVFRLMEVWQALPLILFGVLGLTAGAMTLLLPETKGVALPETIEEAENLGRRKSKAKENTIYLQVQTGKSSST

Tests used:
[1] = target: T1, Solute carrier family 22 member 1 (Rattus norvegicus, UniProt Q63089); test: TP_TRANSPORTER: inhibition of TEA uptake in Xenopus laevis oocytes; assay type: functional, cell-based, Oocyte
T1 sequence (Q63089 whole entry): B1 chain

[2] = target: T1, Solute carrier family 22 member 1; test: (§1) TP_TRANSPORTER: uptake in Xenopus laevis oocytes; assay type: functional, cell-based; conditions: oocyte
[3] = target: T2, Solute carrier family 22 member 2 (Rattus norvegicus, UniProt Q9R0W2); test: as §1; assay type: functional, cell-based; conditions: oocyte
T2 sequence (Q9R0W2 whole entry): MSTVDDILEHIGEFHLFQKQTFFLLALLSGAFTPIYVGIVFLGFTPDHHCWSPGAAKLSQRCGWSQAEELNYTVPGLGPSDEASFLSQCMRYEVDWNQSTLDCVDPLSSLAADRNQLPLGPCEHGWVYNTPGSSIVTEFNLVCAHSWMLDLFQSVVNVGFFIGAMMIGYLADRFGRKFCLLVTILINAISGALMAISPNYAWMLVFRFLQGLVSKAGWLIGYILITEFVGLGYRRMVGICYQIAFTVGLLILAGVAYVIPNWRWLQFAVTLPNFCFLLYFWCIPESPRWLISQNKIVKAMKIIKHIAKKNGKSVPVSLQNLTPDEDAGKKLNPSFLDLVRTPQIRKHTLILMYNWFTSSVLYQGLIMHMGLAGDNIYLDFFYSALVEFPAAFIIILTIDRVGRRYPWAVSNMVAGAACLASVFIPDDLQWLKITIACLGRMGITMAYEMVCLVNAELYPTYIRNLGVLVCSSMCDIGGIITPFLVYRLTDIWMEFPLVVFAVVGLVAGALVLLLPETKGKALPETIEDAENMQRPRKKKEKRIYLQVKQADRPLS

[4] = target: T1, Solute carrier family 22 member 1; test: TP_TRANSPORTER: inhibition of dTub uptake in Xenopus laevis oocytes
[5] = substrate: CC[N+](CC)(CC)CC; test: cells, lysate or membranes named

Molecule	Activity [2]	Activity [3]	also measured
Nc1ncnc2c1ccn2[C@H]1C[C@H](O)[C@@H](CO)O1 [2'-Deoxytubercidin]	–	–	Ki [1]: 19 µM
Nc1nc(Cl)nc2c1ncn2[C@H]1C[C@H](O)[C@@H](CO)O1 [CLADRIBINE]	substrate [+]	is not a substrate [-]	–
Nc1ccn([C@@H]2O[C@H](CO)[C@@H](O)[C@@H]2O)c(=O)n1 [CYTARABINE]	substrate [+]	is not a substrate [-]	–
CC[N+](CC)(CC)CC [TETRYLAMMONIUM]	–	–	Ki [4]: 286 µM
Cc1cn([C@H]2C[C@H](N=[N+]=[N-])[C@@H](CO)O2)c(=O)[nH]c1=O [ZIDOVUDINE]	substrate [+]	is not a substrate [-]	–
B1	–	–	Km [5]: 251 µM
